From ChEMBL document CHEMBL5131445, “Optimization of a novel piperazinone series as potent selective peripheral covalent BTK inhibitors” (Bioorg Med Chem Lett, 2022)
Values after ≈ are worked out from the molar mass of the structure shown.

Columns and labels:
[1] = target: T1, Tyrosine-protein kinase BTK (Homo sapiens, UniProt Q06187); assay: Inhibition of BTK (unknown origin)
[2] = target: T1, Tyrosine-protein kinase BTK; assay: Inhibition of pBTK in human whole blood; type: tissue-based
[3] = Inhibition of CD69 expression on CD19 positive B cells in anti-IgD stimulated human whole blood; type: functional, tissue-based; settings: CD19 positive B cell
[4] = Metabolic stability in human liver microsomes assessed as intrinsic clearance; type: ADME, Microsome; settings: read-out: CLH
[5] = Metabolic stability in rat liver microsomes assessed as intrinsic clearance; type: ADME, Microsome; settings: read-out: CLH
[6] = Plasma protein binding in human assessed as unbound fraction by rapid equilibrium dialysis method; type: ADME, cell-free
[7] = Solubility of the compound at pH 7; type: physicochemical; settings: buffer
[8] = target: Tyrosine-protein kinase Blk (Homo sapiens, UniProt P51451); assay: Binding affinity to BLK (unknown origin) assessed as dissociation constant by KINOMEscan analysis
Tyrosine-protein kinase Blk, sequence (P51451 whole entry): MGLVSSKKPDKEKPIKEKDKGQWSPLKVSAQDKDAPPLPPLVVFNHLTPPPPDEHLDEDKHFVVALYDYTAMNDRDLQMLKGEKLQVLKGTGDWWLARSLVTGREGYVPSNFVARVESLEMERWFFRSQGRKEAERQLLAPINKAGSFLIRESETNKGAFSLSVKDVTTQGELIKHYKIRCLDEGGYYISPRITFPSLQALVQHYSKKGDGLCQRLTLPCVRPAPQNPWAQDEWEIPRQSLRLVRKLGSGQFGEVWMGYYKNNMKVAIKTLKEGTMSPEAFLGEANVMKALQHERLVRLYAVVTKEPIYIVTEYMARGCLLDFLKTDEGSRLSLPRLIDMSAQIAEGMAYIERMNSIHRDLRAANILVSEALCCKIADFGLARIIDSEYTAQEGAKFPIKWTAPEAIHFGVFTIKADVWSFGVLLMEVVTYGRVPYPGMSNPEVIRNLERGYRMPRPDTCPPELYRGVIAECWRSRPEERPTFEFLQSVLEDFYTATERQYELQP

[9] = target: T2, Tyrosine-protein kinase TXK (Homo sapiens, UniProt P42681); assay: Binding affinity to TXK (unknown origin) assessed as dissociation constant by KINOMEscan analysis
T2 sequence (P42681 whole entry): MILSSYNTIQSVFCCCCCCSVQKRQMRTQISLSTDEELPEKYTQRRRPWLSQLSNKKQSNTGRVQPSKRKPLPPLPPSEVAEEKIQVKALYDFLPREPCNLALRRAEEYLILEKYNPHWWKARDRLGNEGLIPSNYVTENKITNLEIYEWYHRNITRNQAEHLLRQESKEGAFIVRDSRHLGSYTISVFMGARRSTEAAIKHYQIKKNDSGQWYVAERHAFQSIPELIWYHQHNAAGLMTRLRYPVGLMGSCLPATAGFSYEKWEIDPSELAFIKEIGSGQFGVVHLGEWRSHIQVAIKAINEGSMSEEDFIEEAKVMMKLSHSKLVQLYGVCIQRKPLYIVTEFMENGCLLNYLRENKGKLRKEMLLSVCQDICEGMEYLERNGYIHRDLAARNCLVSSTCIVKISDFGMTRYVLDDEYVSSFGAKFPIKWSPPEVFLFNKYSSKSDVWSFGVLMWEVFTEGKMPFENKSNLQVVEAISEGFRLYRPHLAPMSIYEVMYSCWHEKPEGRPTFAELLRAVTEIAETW

[10] = target: Receptor tyrosine-protein kinase erbB-2 (Homo sapiens, UniProt P04626); assay: Binding affinity to ERBB2 (unknown origin) assessed as dissociation constant by KINOMEscan analysis
Receptor tyrosine-protein kinase erbB-2, sequence (P04626 whole entry): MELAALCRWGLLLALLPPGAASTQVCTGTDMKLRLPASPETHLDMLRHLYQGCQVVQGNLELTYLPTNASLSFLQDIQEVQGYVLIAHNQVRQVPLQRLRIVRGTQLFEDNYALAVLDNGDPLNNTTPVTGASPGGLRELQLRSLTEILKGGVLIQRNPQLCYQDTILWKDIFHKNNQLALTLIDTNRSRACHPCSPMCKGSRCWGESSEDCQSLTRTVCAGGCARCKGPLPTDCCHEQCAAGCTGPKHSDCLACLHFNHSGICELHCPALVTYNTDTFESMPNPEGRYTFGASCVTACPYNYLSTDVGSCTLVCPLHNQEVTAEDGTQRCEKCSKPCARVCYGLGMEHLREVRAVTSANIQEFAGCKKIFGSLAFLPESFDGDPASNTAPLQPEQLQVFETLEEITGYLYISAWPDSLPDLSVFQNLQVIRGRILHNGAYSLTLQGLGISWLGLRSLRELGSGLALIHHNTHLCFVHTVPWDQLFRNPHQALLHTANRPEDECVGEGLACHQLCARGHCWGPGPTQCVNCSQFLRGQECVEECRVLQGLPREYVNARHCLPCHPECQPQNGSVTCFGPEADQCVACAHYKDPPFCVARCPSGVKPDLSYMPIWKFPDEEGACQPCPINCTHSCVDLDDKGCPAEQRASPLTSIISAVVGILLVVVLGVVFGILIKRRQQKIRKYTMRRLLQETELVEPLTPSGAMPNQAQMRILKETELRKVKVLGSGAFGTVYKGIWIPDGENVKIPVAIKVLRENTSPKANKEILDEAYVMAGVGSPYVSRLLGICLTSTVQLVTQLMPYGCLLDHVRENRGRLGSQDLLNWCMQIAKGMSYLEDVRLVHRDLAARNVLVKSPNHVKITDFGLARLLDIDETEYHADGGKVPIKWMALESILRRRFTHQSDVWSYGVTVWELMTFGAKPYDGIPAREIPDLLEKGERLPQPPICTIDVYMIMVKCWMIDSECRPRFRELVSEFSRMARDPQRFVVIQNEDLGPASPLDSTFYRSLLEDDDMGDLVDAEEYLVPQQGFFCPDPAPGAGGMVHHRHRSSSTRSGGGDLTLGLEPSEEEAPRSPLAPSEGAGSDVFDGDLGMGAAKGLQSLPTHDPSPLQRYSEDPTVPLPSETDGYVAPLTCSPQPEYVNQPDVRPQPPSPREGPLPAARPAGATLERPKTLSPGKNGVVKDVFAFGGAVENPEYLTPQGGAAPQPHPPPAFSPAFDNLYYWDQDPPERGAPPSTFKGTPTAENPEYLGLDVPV

[11] = target: T3, Tyrosine-protein kinase Tec (Homo sapiens, UniProt P42680); assay: Binding affinity to TEC (unknown origin) assessed as dissociation constant by KINOMEscan analysis
T3 sequence (P42680 whole entry): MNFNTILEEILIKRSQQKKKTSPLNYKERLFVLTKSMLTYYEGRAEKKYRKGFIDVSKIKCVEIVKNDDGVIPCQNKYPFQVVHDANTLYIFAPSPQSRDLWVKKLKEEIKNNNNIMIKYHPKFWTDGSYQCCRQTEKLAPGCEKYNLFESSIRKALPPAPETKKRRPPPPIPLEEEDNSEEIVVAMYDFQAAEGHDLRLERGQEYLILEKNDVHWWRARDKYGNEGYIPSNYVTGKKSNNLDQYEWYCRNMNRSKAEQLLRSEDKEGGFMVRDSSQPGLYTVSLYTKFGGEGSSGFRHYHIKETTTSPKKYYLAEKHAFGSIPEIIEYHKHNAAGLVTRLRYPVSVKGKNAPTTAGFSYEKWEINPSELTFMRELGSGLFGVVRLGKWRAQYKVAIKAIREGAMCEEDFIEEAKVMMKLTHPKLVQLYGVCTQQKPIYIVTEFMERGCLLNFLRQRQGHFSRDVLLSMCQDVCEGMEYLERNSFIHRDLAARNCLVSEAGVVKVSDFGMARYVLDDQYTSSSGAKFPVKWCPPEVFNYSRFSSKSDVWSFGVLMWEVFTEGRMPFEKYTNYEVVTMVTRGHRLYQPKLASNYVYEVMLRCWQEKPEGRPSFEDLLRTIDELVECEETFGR

T1 sequence (Q06187 whole entry): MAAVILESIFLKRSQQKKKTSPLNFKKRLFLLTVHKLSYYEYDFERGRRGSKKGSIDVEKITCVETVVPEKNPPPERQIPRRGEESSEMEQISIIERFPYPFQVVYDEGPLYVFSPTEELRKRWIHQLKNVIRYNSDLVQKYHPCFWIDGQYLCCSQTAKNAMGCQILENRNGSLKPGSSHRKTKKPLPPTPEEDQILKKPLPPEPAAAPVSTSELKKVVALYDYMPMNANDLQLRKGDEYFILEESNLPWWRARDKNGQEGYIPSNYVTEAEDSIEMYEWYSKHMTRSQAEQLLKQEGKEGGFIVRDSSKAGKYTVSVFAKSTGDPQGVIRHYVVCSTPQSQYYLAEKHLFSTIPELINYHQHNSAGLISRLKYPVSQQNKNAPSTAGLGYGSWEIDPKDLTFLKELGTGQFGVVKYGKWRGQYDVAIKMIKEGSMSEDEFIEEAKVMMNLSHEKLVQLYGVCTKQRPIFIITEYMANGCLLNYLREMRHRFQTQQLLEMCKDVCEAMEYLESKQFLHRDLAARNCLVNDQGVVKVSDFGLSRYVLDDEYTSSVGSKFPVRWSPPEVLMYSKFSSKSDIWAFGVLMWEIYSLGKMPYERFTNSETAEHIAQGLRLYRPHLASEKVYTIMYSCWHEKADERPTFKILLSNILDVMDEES

CC(C)(C)CN1CCN(Cc2ccc(-c3ccnc(Nc4cnn(CCO)c4)n3)cc2C(F)(F)F)C(=O)C1
IC50 [1]: 0.4 nM | IC50 [2]: 480 nM

Cc1cc(-c2ccnc(Nc3cnn(C)c3)n2)ccc1CN1CCN(CC2(C)CC2)CC1=O
IC50 [1]: 7 nM

Cc1cc(-c2ccnc(Nc3cnn(C)c3)n2)ccc1CN1CCN(CC(C)(C)C#N)CC1=O
IC50 [1]: 99 nM

C=CC(=O)N(C)CCOc1cncnc1-c1ccc(CN2CCN(CC(C)(C)C)CC2=O)c(C)c1
IC50 [1]: 1.35 nM | IC50 [3]: 630 nM | CLint scaled [4]: 1370 mL/min/kg | CLint scaled [5]: 2500 mL/min/kg | fraction unbound [6]: 0.14 | solubility [7]: 13 µg/mL (≈ 27.1 µM)

C=CC(=O)N(C)CCOc1cnccc1-c1ccc(CN2CCN(CCC)CC2=O)c(C)c1
IC50 [1]: 4.8 nM | IC50 [3]: 890 nM | CLint scaled [4]: 286 mL/min/kg | CLint scaled [5]: 1540 mL/min/kg

CC(C)CN1CCN(Cc2ccc(-c3ccnc(Nc4cnn(CCO)c4)n3)cc2Cl)C(=O)C1
IC50 [1]: 4 nM | IC50 [2]: 990 nM

Cc1cc(-c2ccnc(Nc3cnn(C)c3)n2)ccc1CN1CCN(CC(C)(C)C)CC1=O
IC50 [1]: 1 nM | IC50 [2]: 1050 nM | IC50 [3]: > 10000 nM | CLint scaled [4]: 228 mL/min/kg | CLint scaled [5]: 493 mL/min/kg | fraction unbound [6]: 0.014 | solubility [7]: 11 µg/mL (≈ 24.6 µM)

Cc1cc(-c2ccnc(Nc3cnn(C)c3)n2)ccc1CN1CCN(C2CCC2)CC1=O
IC50 [1]: 11 nM

Cc1cc(-c2ccnc(Nc3cnn(C)c3)n2)ccc1CN1CCN(CC2CCOC2)CC1=O (stereo unspecified)
IC50 [1]: 180 nM

C=CC(=O)N(C)CCOc1cncnc1-c1ccc(CN2CCN(CC3(C)CC3)CC2=O)c(C)c1
IC50 [1]: 0.98 nM | IC50 [3]: 130 nM | CLint scaled [4]: 559 mL/min/kg | CLint scaled [5]: 2680 mL/min/kg

C=CC(=O)N(C)CCOc1cnccc1-c1ccc(CN2CCN(C)CC2=O)c(C)c1
IC50 [1]: 315 nM | IC50 [3]: > 10000 nM | CLint scaled [4]: 95 mL/min/kg | CLint scaled [5]: 620 mL/min/kg

C=CC(=O)N(C)CCOc1c(-c2ccc(CN3CCN(CC(C)C)CC3=O)c(C)c2)ccnc1N
IC50 [1]: 0.69 nM | IC50 [3]: 360 nM | CLint scaled [4]: 334 mL/min/kg | CLint scaled [5]: 793 mL/min/kg | fraction unbound [6]: 0.29

Cc1cc(-c2ccnc(Nc3cnn(CCO)c3)n2)ccc1CN1CCN(CC(C)C)CC1=O
IC50 [1]: 3 nM | IC50 [2]: 590 nM

Cc1cc(-c2ccnc(Nc3cnn(C)c3)n2)ccc1CN1CCN(CC2CNC2)CC1=O
IC50 [1]: 4200 nM

C=CC(=O)N(C)CCOc1cnccc1-c1ccc(CN2CCN(CC(C)(C)C)CC2=O)c(C)c1
IC50 [1]: 0.44 nM | IC50 [3]: 300 nM | CLint scaled [4]: 809 mL/min/kg | CLint scaled [5]: 3680 mL/min/kg | fraction unbound [6]: 0.11 | solubility [7]: 55 µg/mL (≈ 115 µM)

C=CC(=O)N(C)CCOc1cnccc1-c1ccc(CN2CCN(CC(C)C)CC2=O)c(C)c1
IC50 [1]: 0.65 nM | IC50 [3]: 160 nM | CLint scaled [4]: 633 mL/min/kg | CLint scaled [5]: 2340 mL/min/kg

Cc1cc(-c2ccnc(Nc3cnn(C)c3)n2)ccc1CN1CCN(CC(C)C)CC1=O
IC50 [1]: 3 nM | IC50 [2]: 310 nM

C=CC(=O)N(C)CCOc1cnccc1-c1ccc(CN2CCN(CC3CCC3)CC2=O)c(C)c1
IC50 [1]: 1.2 nM | IC50 [3]: 1080 nM | CLint scaled [4]: 686 mL/min/kg | CLint scaled [5]: 2260 mL/min/kg

Cc1cc(-c2ccnc(Nc3cnn(CCO)c3)n2)ccc1CN1CCN(CC(C)(C)C)CC1=O
IC50 [1]: 1 nM | IC50 [2]: 810 nM

Cc1cc(-c2ccnc(Nc3cnn(C)c3)n2)ccc1CN1CCN(CC2CC(F)(F)C2)CC1=O
IC50 [1]: 28 nM

CC#CC(=O)N1CCC[C@H]1c1nc(-c2ccc(C(=O)Nc3ccccn3)cc2)c2c(N)nccn12 [ACALABRUTINIB]
Kd [8]: 18 nM | Kd [9]: 24 nM

CC(C)CN1CCN(Cc2ccc(-c3ccnc(Nc4cnn(CCO)c4)n3)cc2C(F)(F)F)C(=O)C1
IC50 [1]: 1 nM | IC50 [2]: 120 nM

C=CC(=O)N(C)CCOc1cnccc1-c1ccc(CN2CCN(C(C)C)CC2=O)c(C)c1
IC50 [1]: 2.9 nM | IC50 [3]: 920 nM | CLint scaled [4]: 135 mL/min/kg | CLint scaled [5]: 1240 mL/min/kg

Cc1cc(-c2ccnc(Nc3cnn(C4CN(C)C4)c3)n2)ccc1CN1CCN(CC(C)(C)C)CC1=O
IC50 [1]: 7 nM | IC50 [2]: 2650 nM

Cc1cc(-c2ccnc(Nc3cnn(C)c3)n2)ccc1CN1CCN(CC2CN(C)C2)CC1=O
IC50 [1]: 7300 nM

C=CC(=O)N(C)CCOc1cncnc1-c1ccc(CN2CCN(CC(F)(F)F)CC2=O)c(C)c1
IC50 [1]: 12 nM | IC50 [3]: 1990 nM | CLint scaled [4]: 316 mL/min/kg | CLint scaled [5]: 1110 mL/min/kg

C=CC(=O)N(C)CCOc1cncnc1-c1ccc(CN2CCN(CC3CCC3)CC2=O)c(C)c1
IC50 [1]: 1.6 nM | IC50 [3]: 1080 nM | CLint scaled [4]: 384 mL/min/kg | CLint scaled [5]: 1880 mL/min/kg

Cc1cc(-c2ccnc(Nc3cnn(C)c3)n2)ccc1CN1CCN(CC(F)(F)F)CC1=O
IC50 [1]: 160 nM

C=CC(=O)N(C)CCOc1cncnc1-c1ccc(CN2CCN(CC(C)(C)C)CC2=O)cc1
IC50 [1]: 17 nM | IC50 [3]: 4700 nM | CLint scaled [4]: 270 mL/min/kg | CLint scaled [5]: 930 mL/min/kg

C=CC(=O)N(C)CCOc1cncnc1-c1ccc(CN2CCN(CC(C)(C)C)CC2=O)c(F)c1
IC50 [1]: 0.44 nM | IC50 [3]: 300 nM | CLint scaled [4]: 809 mL/min/kg | CLint scaled [5]: 3680 mL/min/kg

Cc1cc(-c2ccnc(Nc3cnn(C)c3)n2)ccc1CN1CCN(CC2CN(O)C2)CC1=O
IC50 [1]: 80 nM

C=CC(=O)N1CCC([C@@H]2CCNc3c(C(N)=O)c(-c4ccc(Oc5ccccc5)cc4)nn32)CC1 [ZANUBRUTINIB]
Kd [10]: 76 nM | Kd [11]: 18 nM | Kd [9]: 980 nM

Cc1cc(-c2ccnc(Nc3cnn(C)c3)n2)ccc1CN1CCN(C(C)(C)C)CC1=O
IC50 [1]: 43 nM

CCN1CCN(Cc2ccc(-c3ccnc(Nc4cnn(C)c4)n3)cc2C)C(=O)C1
IC50 [1]: 520 nM

C=CC(=O)N(C)CCOc1cnccc1-c1ccc(CN2CCN(CC)CC2=O)c(C)c1
IC50 [1]: 32 nM | IC50 [3]: 4410 nM | CLint scaled [4]: 113 mL/min/kg | CLint scaled [5]: 591 mL/min/kg

Cc1cc(-c2ccnc(Nc3cnn(C4CN(C)C4)c3)n2)ccc1CN1CCN(CC(C)C)CC1=O
IC50 [1]: 7 nM | IC50 [2]: 350 nM

Cc1cc(-c2ccnc(Nc3cnn(C)c3)n2)ccc1CN1CCN(CC2CCC2)CC1=O
IC50 [1]: 3 nM | IC50 [2]: 930 nM

CC(=O)N(C)CCOc1cncnc1-c1ccc(CN2CCN(CC(C)(C)C)CC2=O)c(C)c1
IC50 [1]: 1720 nM | IC50 [3]: > 10000 nM | CLint scaled [4]: 530 mL/min/kg | CLint scaled [5]: 1500 mL/min/kg | fraction unbound [6]: 0.31

C=CC(=O)N(C)CCOc1cncnc1-c1ccc(CN2CCN(C3CCOC3)CC2=O)c(F)c1 (stereo unspecified)
IC50 [1]: 268 nM | IC50 [3]: > 10000 nM | CLint scaled [4]: 81 mL/min/kg | CLint scaled [5]: 308 mL/min/kg
